Laboratory results published in US20250177354A1, “THERAPEUTIC COMBINATIONS, COMPOSITIONS, AND METHODS FOR DESIGNING AND PRODUCING EN[…]” (Mindstate Design Labs, Inc., priority 2022, published 2025).
“Also recorded” adds a separate entry of the source.

What was measured:
subjects [1] = settings: cited from earlier work
subjects [2] = settings: subjects administered MDMA; cited from earlier work
[3] = cited from earlier work
individual = test: Self-administration of combinations and single-compound controls, subjective reports recorded by the individual; type: in vivo, human
Procedure: In several examples of such administration, the combinations as follows were self-administered, with the subjective reports recorded by the individual during and/or following such administration, as below.
The following example was performed for purposes of and is presented as a control.
In an example, the combination as set forth below was self-administered, with the report as follows.
The working example below was performed for purposes of and is presented as a control.
The working examples below were also performed for purposes of and are presented as controls, using an escalating dose of a single primer alone, applicable to this and other Examples.

α2-adrenergic receptor = settings: cited from earlier work
I1 = settings: cited from earlier work
I1 Imidazoline Sites = settings: cited from earlier work; for Selectivity Ratio: I1 relative to α2 (α2 value / I1 value)
[4] = control: 4.0 mg 5-MeO-MiPT alone
[5] = control: 8.0 mg 5-MeO-MiPT alone
[6] = control: 10.0 mg 5-MeO-MiPT alone

CNC(C)Cc1ccc2c(c1)OCO2 (racemic) [MDMA, (RS)-1-(1,3-Benzo-dioxol-5-yl)-N-methylpropan-2-amine]
subject-reported sociability (subjects [1]; following administration of MDMA): increases in sociability
brain imaging responses to facial expressions (subjects [1]; subjects administered MDMA): attenuated responses to angry facial expressions and enhanced responses to happy expressions
mental state decoding (mind reading) of social cues (subjects [2]): enhanced mental state decoding of positive stimuli, such as friendliness, and impaired the accuracy of mind reading for negative stimuli
effect on a stutter (case, Shulgin & Shulgin, 1991) ([3]; graduate student): dramatic improvements in a stutter
efficacy in autistic social impairment (systematic review, Chaliha, 2021) ([3]; in vivo): efficacious as a pharmacological treatment

COc1ccc2[nH]cc(CCN(C)C(C)C)c2c1 [Example 5-MeO-MiPT, N-isopropyl-5-methoxy-N-methyltryptamine]
physical discomfort (self-report) (individual; [4]): my brain was so heavy and tired
subjective effects (self-report) (individual; [4]): My emotion is quite neutral, not much different from the normal state
subjective effects (self-report) (individual; control: 6.0 mg 5-MeO-MiPT alone): generally emotionally neutral
physical discomfort (self-report) (individual; [5]): my body was uncoordinated, and I trembled a lot
subjective effects (self-report) (individual; [5]): There was no emergence of a stable mental state; also recorded: There was not much feeling
physical discomfort (self-report) (individual; [6]): My stomach was so upset that I had to vomit
subjective effects (self-report) (individual; [6]): void of emotion and mental activities

CC1CC(NC(C2CC2)C2CC2)=NC1C (centres unmarked) [LNP509, dicyclopropylmethyl-(4,5-dimethyl-4,5-dihydro-3H-pyrrol-2-yl)-amine]
affinity or activity for the α2-adrenergic receptor (α2-adrenergic receptor): no detectable affinity or activity

Cc1c(Cl)cccc1NC1=NCC(C)C1 (centres unmarked) [LNP599]
affinity or activity for the α2-adrenergic receptor (α2-adrenergic receptor): no detectable affinity or activity
affinity for I1 (I1): nanomolar affinity

CC1CNC(Nc2c(Cl)cccc2Cl)=N1 (centres unmarked) [LNP630, (2,6-dichloro-phenyl)-(4-methyl-4,5-dihydro-1H-imidazol-2-yl)-amine]
affinity or activity for the α2-adrenergic receptor (α2-adrenergic receptor): no detectable affinity or activity

CC1CCC(Nc2cc(N=[N+]=[N-])c(I)cc2Cl)=N1 (centres unmarked) [LNP906, 2-(5-azido-2-chloro-4-iodo-phenyl-amino)-5-methyl-pyrroline]
affinity or activity for the α2-adrenergic receptor (α2-adrenergic receptor): no detectable affinity or activity

CC1CCC(Nc2ccc(I)cc2Cl)=N1 (centres unmarked) [LNP911, 2-(2-chloro-4-iodo-phenylamino)-5-methyl-pyrroline]
affinity or activity for the α2-adrenergic receptor (α2-adrenergic receptor): no detectable affinity or activity

CC(Oc1c(Cl)cccc1Cl)C1=NCCN1 (centres unmarked) [Lofexidine]
Selectivity Ratio (I1 Imidazoline Sites): 3.63

COc1nc(C)nc(Cl)c1NC1=NCCN1 [Moxonidine, 4-Chloro-N-(4,5-dihydro-1H-imidazol-2-yl)-6-methoxy-2-methylpyrimidin-5-amine]
subjective effects (self-report) (individual; control: 0.2 mg Moxonidine alone, 12:30 pm): more focused, probably more centered, less distracted by thinking; also recorded: All very subtle but detectable

C1COC(NC(C2CC2)C2CC2)=N1 [Rilmenidine, N-(dicyclopropylmethyl)-4,5-dihydro-1,3-oxazol-2-amine]
subjective effects (self-report) (individual; control: 1.0 mg Rilmenidine alone, 9:00 pm): relaxing, my chest less strained; also recorded: the effect was subtle
Selectivity Ratio (I1 Imidazoline Sites): 29.51
selectivity for I1 relative to α2 receptors (I1 Imidazoline Sites; I1 relative to α2 receptors): about 30 fold
